Experimental data: US3974165A, “Hypotensive agents” (Bristol-Myers Company, priority 1974, dated 1976)
Converted amounts (≈) assume the structure as drawn.

Key:
conscious rats = test: Effect of compounds on mean aortic pressure and heart rate in conscious rats (oral); type: in vivo, genetically hypertensive rats; details: for Heart Rate / mean aortic pressure / Heart Rate % Change / Aortic Pressure % Change: 50 mg/kg po; for Aortic Pressure % Change: - denotes a decrease in b.p.
Procedure: The blood pressure of unanesthetized rats and dogs was measured directly by means of a transducer attached to an intra-arterial cannula and in anesthetized dogs by a mercury manometer attached to a carotid cannula.
The compounds of the instant invention were tested as the hydrochloride salts by the above method in genetically hypertensive rats in doses of 50 mg./kg. orally.
Compounds were studied by oral administration in conscious rats for their effects on aortic pressure and cardiac rate.

[1] = as compared to compound 1; Jen et al, J. Med. Chem. 16, 633 (1973); cited from earlier work
[2] = system: adenosine diphosphate (ADP) induced platelet aggregation; test: In vitro inhibition of ADP induced platelet aggregation (aggregometer method of Born); type: cell-based; details: Oryctolagus cuniculus; rabbit platelet rich plasma, ADP 0.5 mcg./ml.
Procedure: (§1) The aggregometer method of Born (1), as modified by Mustard et al (2) was used to assess the in vitro activity of the various compounds as to inhibition of adenosine diphosphate (ADP) and collagen induced platelet aggregation. Platelet rich plasma was separated by centrifugation from citrated (3.8 per cent) rabbit blood. ADP in final concentration of 0.5 mcg./ml. or 0.05 ml. of a collagen suspension prepared according to the method described by Evans et al. (3) was used to induce aggregation. The various compounds tested were dissolved in dimethylsulfoxide (DMSO) so that 5 mcl. added to the platelet rich plasma would yield the desired test concentration. Vehicle control trials were done and compared with aggregation induced in platelet rich plasma containing various concentrations of the test compounds. Dose response curves were obtained and Effective Concentration (EC50) values calculated.
(§2) 1. Born, G.V.R J. Physiol., London, 162, 67P (1962).
(§3) 2. mustard, J. F., Hegardt, B. Rowsell, H. C. and MacMillan, R. L., J. Lab. Clin. Med. 64, 548 (1964).
(§4) 3. Evans, G. Marian, M. C., Packham, M. A., Nishizawa, E. E., Mustard, J. F. and Murphy, E. A., J. Exp. Med., 128, 877 (1968).

[3] = system: collagen induced platelet aggregation; test: In vitro inhibition of collagen induced platelet aggregation (aggregometer method of Born); type: cell-based; details: Oryctolagus cuniculus; rabbit platelet rich plasma, 0.05 ml. collagen suspension
Procedure: as §1, §2, §3, §4

[4] = oral administration, conscious rats

Row | Structure (SMILES) | Heart Rate (conscious rats; N=3, 0 min (baseline)) [Beats/Min] | mean aortic pressure (conscious rats; N=3, 0 min (baseline)) [mmHg] | Heart Rate (conscious rats; N=3, 30 min) [Beats/Min] | Heart Rate % Change (conscious rats; N=3, 30 min) [%] | mean aortic pressure (conscious rats; N=3, 30 min) [mmHg] | Aortic Pressure % Change (conscious rats; N=3, 30 min) [%] | Heart Rate (conscious rats; N=3, 90 min) [Beats/Min] | Heart Rate % Change (conscious rats; N=3, 90 min) [%] | mean aortic pressure (conscious rats; N=3, 90 min) [mmHg] | Aortic Pressure % Change (conscious rats; N=3, 90 min) [%] | Heart Rate (conscious rats; N=3, 150 min) [Beats/Min] | Heart Rate % Change (conscious rats; N=3, 150 min) [%] | mean aortic pressure (conscious rats; N=3, 150 min) [mmHg] | Aortic Pressure % Change (conscious rats; N=3, 150 min) [%] | Heart Rate (conscious rats; N=3, 300 min) [Beats/Min] | Heart Rate % Change (conscious rats; N=3, 300 min) [%] | EC50 [2] [µg/mL] | EC50 [3] [µg/mL] | other results
1 | O=C1CC2Cc3ccccc3N=C2N1 (centres unmarked) [BL-4369] | 350±25 | 114±2 | 420±19 | 21±9 | 91±6 | -20±6 | 414±26 | 19±9 | 110±3 | -3±4 | 370±31 | 6±8 | 101±3 | -11±2 | 382±25 | 10±7 | – | – | mean aortic pressure (conscious rats; N=3, 300 min): 109±8 mmHg
2 | Cc1cccc2c1CC1CC(=O)NC1=N2 (centres unmarked) [BL-4412] | 352±21 | 126±2 | 464±24 | 34±15 | 86±1 | -32 | 432±12 | 24±10 | 86±2 | -31.2 | 422±12 | 21±11 | 89±4 | -29 | 422±19 | 1±12 | – | – | Aortic Pressure % Change (conscious rats; N=3, 300 min): -25%; effect on aortic pressure (in words) (conscious rats; [4]): appreciable fall in aortic pressure; effect on heart rate (in words) (conscious rats; [4]): not out of proportion to the fall in aortic pressure
3 | c1ccc2c(c1)CC1CCNC1=N2 (centres unmarked) [compound 2] | – | – | – | – | – | – | – | – | – | – | – | – | – | – | – | – | – | – | antihypertensive activity (in words) [1]: low degree of antihypertensive activity
4 | O=C1CC2Cc3ccccc3N=C2N1 (centres unmarked) [drawing 3] | – | – | – | – | – | – | – | – | – | – | – | – | – | – | – | – | 22 (≈ 118 µM) | 27 (≈ 145 µM) | –
5 | Cc1cccc2c1CC1CC(=O)NC1=N2 (centres unmarked) [drawing 4] | – | – | – | – | – | – | – | – | – | – | – | – | – | – | – | – | 1.5 (≈ 7.49 µM) | 0.3 (≈ 1.5 µM) | –
